Measured values taken from ChEMBL document CHEMBL4393699, “Ligand retargeting by binding site analogy” (Eur J Med Chem, 2019).
Active and inactive are the calls of the source. The calls are words filed in the database; no cut-off is given here.

Columns and labels:
Beta-secretase 1 [1] = target: T1, Beta-secretase 1 (Homo sapiens, UniProt P56817); assay: Inhibition of BACE1 (unknown origin) using HiLyte Fluo488/QXL-520 as substrate by FRET assay
Beta-secretase 1 [2] = target: T1, Beta-secretase 1; assay: Inhibition of BACE1 (unknown origin) at 200 uM using HiLyte Fluo488/QXL-520 as substrate by FRET assay
Homo sapiens = species: Homo sapiens; assay: Selectivity ratio of IC50 for BACE1 (unknown origin) to IC50 for recombinant His-tagged […] (unknown origin) expressed in Escherichia coli BL21 (DE3) cells
HeLa = assay: Antiproliferative activity against human HeLa cells assessed as reduction in cell growth incubated for 72 hrs by resazurin dye based fluorescent assay
[3] = target: Voltage-gated inwardly rectifying potassium channel KCNH2 (Homo sapiens, UniProt Q12809); assay: Inhibition of fluorescently labeled tracer binding to human ERG at 200 uM by competitive binding assay
Sequence of Voltage-gated inwardly rectifying potassium channel KCNH2 (Q12809 whole entry): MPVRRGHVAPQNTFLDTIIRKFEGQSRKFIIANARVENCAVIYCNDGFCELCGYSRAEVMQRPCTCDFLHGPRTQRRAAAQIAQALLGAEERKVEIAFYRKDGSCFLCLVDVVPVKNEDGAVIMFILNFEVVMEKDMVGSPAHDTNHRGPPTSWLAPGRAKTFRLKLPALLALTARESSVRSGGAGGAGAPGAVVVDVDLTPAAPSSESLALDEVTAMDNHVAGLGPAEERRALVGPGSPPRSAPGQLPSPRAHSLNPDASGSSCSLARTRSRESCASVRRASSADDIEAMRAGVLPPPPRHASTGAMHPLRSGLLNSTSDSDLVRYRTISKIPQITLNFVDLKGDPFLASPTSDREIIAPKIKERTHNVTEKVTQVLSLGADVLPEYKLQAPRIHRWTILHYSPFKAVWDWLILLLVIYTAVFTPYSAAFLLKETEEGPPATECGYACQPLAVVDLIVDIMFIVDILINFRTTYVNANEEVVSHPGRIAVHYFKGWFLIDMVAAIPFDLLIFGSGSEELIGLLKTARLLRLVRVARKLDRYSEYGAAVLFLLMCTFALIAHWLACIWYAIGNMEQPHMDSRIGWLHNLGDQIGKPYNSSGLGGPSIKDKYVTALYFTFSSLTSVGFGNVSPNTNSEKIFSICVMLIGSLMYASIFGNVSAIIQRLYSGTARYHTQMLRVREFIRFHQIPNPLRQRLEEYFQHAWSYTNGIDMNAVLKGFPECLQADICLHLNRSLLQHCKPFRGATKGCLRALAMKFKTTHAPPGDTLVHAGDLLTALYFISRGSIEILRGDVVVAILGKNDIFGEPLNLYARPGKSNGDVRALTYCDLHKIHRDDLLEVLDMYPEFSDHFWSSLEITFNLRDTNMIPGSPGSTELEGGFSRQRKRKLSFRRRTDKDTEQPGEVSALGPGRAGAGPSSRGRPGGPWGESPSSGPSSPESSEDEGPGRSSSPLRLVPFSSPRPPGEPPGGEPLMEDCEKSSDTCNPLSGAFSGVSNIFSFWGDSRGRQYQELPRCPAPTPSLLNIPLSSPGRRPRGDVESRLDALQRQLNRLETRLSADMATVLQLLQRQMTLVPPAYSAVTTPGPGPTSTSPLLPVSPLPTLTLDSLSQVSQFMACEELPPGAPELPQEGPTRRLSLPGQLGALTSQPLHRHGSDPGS

T1 sequence (P56817 whole entry): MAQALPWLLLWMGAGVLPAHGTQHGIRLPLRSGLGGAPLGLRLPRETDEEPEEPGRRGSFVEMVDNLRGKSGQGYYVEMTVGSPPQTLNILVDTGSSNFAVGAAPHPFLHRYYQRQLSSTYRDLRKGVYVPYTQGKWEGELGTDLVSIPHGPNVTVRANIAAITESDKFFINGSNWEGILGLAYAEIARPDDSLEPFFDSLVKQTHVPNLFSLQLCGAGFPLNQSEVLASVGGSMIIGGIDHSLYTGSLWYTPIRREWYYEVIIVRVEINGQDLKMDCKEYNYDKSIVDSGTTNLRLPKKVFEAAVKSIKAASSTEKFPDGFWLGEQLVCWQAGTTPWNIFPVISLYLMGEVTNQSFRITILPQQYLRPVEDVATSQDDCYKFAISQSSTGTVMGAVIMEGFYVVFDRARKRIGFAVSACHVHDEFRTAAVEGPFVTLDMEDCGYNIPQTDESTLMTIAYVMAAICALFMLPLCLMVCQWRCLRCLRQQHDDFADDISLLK

Nc1nc2ncccc2[nH]1
IC50 (Beta-secretase 1 [1]): > 200 µM | inhibition (Beta-secretase 1 [2]): inactive

NCCc1ccc(O)c(C2CCCCC2)c1
Ratio IC50 (Homo sapiens): 5

Nc1nc2c(-c3ccncc3F)ccnc2[nH]1
IC50 (Beta-secretase 1 [1]): > 200 µM | GI50 (HeLa): 30 to 90 µM | inhibition (Beta-secretase 1 [2]): inactive | inhibition (INH) [3]: Not Active

Nc1nc(NC2CC2)cc(-c2cccc(Cl)c2Cl)n1
GI50 (HeLa): 3.8 µM
